Assay results as given in patent US10131653B2, “Heterocyclic compound” (TAKEDA PHARMACEUTICAL COMPANY LIMITED, priority 2015, dated 2018).
Where a name gives a salt, the structure may show the parent alone.

Tests used:
human OX1 receptor = target: T1, human OX1 receptor (Homo sapiens, UniProt O43613); assay: Measurement of orexin receptor antagonistic activity (calcium fluorescence, FLIPRtetra); format: cell-based; conditions: CHO, 10 μM test compound; CHO cells expressing human OX1 receptor; OX-A 1 nM; read-out: Human Orexin1 receptor inhibition (at 10 μM)
T1 construct: expressed in transfected cells; host or cells: CHO cells
T1 sequence (O43613 1-425): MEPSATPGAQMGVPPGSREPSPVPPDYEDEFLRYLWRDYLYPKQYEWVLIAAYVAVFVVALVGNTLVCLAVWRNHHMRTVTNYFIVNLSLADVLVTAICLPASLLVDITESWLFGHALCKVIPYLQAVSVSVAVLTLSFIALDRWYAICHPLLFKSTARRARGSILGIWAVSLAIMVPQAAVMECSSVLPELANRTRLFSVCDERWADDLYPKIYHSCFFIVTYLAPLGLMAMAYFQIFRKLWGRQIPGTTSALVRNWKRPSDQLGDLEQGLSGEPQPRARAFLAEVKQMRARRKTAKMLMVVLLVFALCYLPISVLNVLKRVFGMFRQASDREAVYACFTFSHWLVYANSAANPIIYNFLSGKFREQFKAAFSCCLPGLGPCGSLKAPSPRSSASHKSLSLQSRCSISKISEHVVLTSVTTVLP
Procedure, shortened: (§1)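 Calcium fluorescence measured by FLIPRtetra every second for 2 min after orexin-A challenge, 1 nM final for OX1 and 0.3 nM final for OX2. Receptor-expressing CHO cells received compound in HEPES-buffered HBSS with 0.1% BSA just before agonist.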

human OX2 receptor = target: T2, human OX2 receptor (Homo sapiens, UniProt O43614); assay: as above; format: cell-based; conditions: CHO, 10 μM test compound; CHO cells expressing human OX2 receptor; OX-A 0.3 nM; read-out: Human Orexin2 receptor inhibition (at 10 μM)
T2 construct: expressed in transfected cells; host or cells: CHO cells
T2 sequence (O43614 1-444): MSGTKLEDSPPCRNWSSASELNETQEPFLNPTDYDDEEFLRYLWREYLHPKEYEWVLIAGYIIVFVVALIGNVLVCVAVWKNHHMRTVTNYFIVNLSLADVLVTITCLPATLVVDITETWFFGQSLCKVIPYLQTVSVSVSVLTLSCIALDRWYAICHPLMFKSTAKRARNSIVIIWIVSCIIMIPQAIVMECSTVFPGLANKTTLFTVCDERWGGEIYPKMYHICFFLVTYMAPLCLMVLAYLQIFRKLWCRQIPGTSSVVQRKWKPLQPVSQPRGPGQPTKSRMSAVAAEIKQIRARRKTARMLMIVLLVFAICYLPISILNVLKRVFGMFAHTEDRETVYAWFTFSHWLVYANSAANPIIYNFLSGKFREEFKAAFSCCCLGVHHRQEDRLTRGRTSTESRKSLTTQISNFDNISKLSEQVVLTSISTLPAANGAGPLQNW
Procedure, shortened: as §1

SMILES	inhibition at 10 µM (human OX1 receptor) [%]	inhibition at 10 µM (human OX2 receptor) [%]
CCC1CN(C(=O)c2ccccc2-n2nccn2)CCN(c2cc(C)nc(C)n2)O1 (stereo not shown) [Example 112, (2-(2,6-dimethylpyrimidin-4-yl)-7-ethyl-1,2,5-oxadiazepan-5-yl)(2-(2H-1,2,3-triazol-2-yl)phenyl)methanone]	90	101
COCC1CN(C(=O)c2ccccc2-n2nccn2)CCN(c2cc(C)nc(C)n2)O1 (stereo not shown) [Example 113, (2-(2,6-dimethylpyrimidin-4-yl)-7-(methoxymethyl)-1,2,5-oxadiazepan-5-yl)(2-(2H-1,2,3-triazol-2-yl)phenyl)methanone]	16	102
Cc1ccc(-n2nccn2)c(C(=O)N2CCN(c3nc(C)cc(C)n3)OC[C@H]2C)c1 [Example 114, ((6R)-2-(4,6-dimethylpyrimidin-2-yl)-6-methyl-1,2,5-oxadiazepan-5-yl) (5-methyl-2-(2H-1,2,3-triazol-2-yl)phenyl)methanone]	69	96
Cc1ccc(-n2nccn2)c(C(=O)N2CCN(c3nc(C)cc(C#N)n3)OC[C@H]2C)c1 [Example 115, 6-methyl-2-((6R)-6-methyl-5-(5-methyl-2-(2H-1,2,3-triazol-2-yl)benzoyl)-1,2,5-oxadiazepan-2-yl)pyrimidine-4-carbonitrile]	103	100
Cc1ccc(-n2nccn2)c(C(=O)N2CCN(c3ncc4sccc4n3)OC[C@H]2C)c1 [Example 116, ((6R)-6-methyl-2-(thieno[3,2-d]pyrimidin-2-yl)-1,2,5-oxadiazepan-5-yl) (5-methyl-2-(2H-1,2,3-triazol-2-yl)phenyl)methanone]	101	100
COc1nc(N2CCN(C(=O)c3cc(C)ccc3-n3nccn3)[C@H](C)CO2)ncc1F [Example 117, ((6R)-2-(5-fluoro-4-methoxypyrimidin-2-yl)-6-methyl-1,2,5-oxadiazepan-5-yl)(5-methyl-2-(2H-1,2,3-triazol-2-yl)phenyl)methanone hydrochloride]	77	100
Cc1ccc(-n2nccn2)c(C(=O)N2CCN(c3nc4cc(Cl)ccc4o3)OC[C@H]2C)c1 [Example 118, ((6R)-2-(5-chloro-1,3-benzoxazol-2-yl)-6-methyl-1,2,5-oxadiazepan-5-yl)(5-methyl-2-(2H-1,2,3-triazol-2-yl)phenyl)methanone]	101	102
Cc1ccc(-n2nccn2)c(C(=O)N2CCN(c3ccc(F)cn3)OC[C@H]2C)c1 [Example 119, ((6R)-2-(5-fluoropyridin-2-yl)-6-methyl-1,2,5-oxadiazepan-5-yl)(5-methyl-2-(2H-1,2,3-triazol-2-yl)phenyl)methanone]	48	92
COc1cccc(N2CCN(C(=O)c3cc(C)ccc3-n3nccn3)[C@H](C)CO2)c1 [Example 120, ((6R)-2-(3-methoxyphenyl)-6-methyl-1,2,5-oxadiazepan-5-yl) (5-methyl-2-(2H-1,2,3-triazol-2-yl)phenyl)methanone]	83	100
Cc1ccc(-n2nccn2)c(C(=O)N2CCN(c3ccc(Cl)cn3)OC[C@H]2C)c1 [Example 121, ((6R)-2-(5-chloropyridin-2-yl)-6-methyl-1,2,5-oxadiazepan-5-yl) (5-methyl-2-(2H-1,2,3-triazol-2-yl)phenyl)methanone]	92	94
Cc1ccc(-n2nccn2)c(C(=O)N2CCN(c3ncccc3Cl)OC[C@H]2C)c1 [Example 122, ((6R)-2-(3-chloropyridin-2-yl)-6-methyl-1,2,5-oxadiazepan-5-yl) (5-methyl-2-(2H-1,2,3-triazol-2-yl)phenyl)methanone]	11	69
